According to paper PMC7761077, “Differential Effects of Cancer-Associated Mutations Enriched in Helix H3 of PPARγ” (Cancers, 2020):
Where a chain is given by its changes, count along the chain named.

T1: PPARγ LBD Q286E (Homo sapiens, UniProt P37231, Q314E)
T1 construct: PPARγ LBD (residues 195–477 in PPARγ1 numbering) was cloned into the expression vector pET-28b(+); made in house; host or cells: Escherichia coli Rosetta 2(DE3)
T1 sequence (P37231 195-477 isoform P37231-2 Q286E): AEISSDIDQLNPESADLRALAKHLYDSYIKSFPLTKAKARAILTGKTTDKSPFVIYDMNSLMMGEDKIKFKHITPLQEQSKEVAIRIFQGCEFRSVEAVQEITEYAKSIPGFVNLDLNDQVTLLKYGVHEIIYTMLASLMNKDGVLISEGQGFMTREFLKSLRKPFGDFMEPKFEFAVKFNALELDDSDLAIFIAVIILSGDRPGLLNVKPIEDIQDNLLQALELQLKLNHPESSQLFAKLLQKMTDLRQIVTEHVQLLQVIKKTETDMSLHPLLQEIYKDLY

T2: PPARγ LBD WT (Homo sapiens, UniProt P37231)
T2 construct: PPARγ LBD (residues 195–477 in PPARγ1 numbering) was cloned into the expression vector pET-28b(+); made in house; host or cells: Escherichia coli Rosetta 2(DE3)
T2 sequence (P37231 195-477 isoform P37231-2): T1 sequence (P37231 195-477 isoform P37231-2 Q286E) with E92Q

T3: PPARγ LBD F287Y (Homo sapiens, UniProt P37231, F315Y)
T3 construct: PPARγ LBD (residues 195–477 in PPARγ1 numbering) was cloned into the expression vector pET-28b(+); made in house; host or cells: Escherichia coli Rosetta 2(DE3)
T3 sequence (P37231 195-477 isoform P37231-2 F287Y): T1 sequence (P37231 195-477 isoform P37231-2 Q286E) with E92Q, F93Y

T4: PPARγ LBD R288H (Homo sapiens, UniProt P37231, R316H)
T4 construct: PPARγ LBD (residues 195–477 in PPARγ1 numbering) was cloned into the expression vector pET-28b(+); made in house; host or cells: Escherichia coli Rosetta 2(DE3)
T4 sequence (P37231 195-477 isoform P37231-2 R288H): T1 sequence (P37231 195-477 isoform P37231-2 Q286E) with E92Q, R94H

T5: PPARγ LBD S289C (Homo sapiens, UniProt P37231, S317C)
T5 construct: PPARγ LBD (residues 195–477 in PPARγ1 numbering) was cloned into the expression vector pET-28b(+); made in house; host or cells: Escherichia coli Rosetta 2(DE3)
T5 sequence (P37231 195-477 isoform P37231-2 S289C): T1 sequence (P37231 195-477 isoform P37231-2 Q286E) with E92Q, S95C

T6: PPARγ LBD R280C (Homo sapiens, UniProt P37231, R308C)
T6 construct: PPARγ LBD (residues 195–477 in PPARγ1 numbering) was cloned into the expression vector pET-28b(+); made in house; host or cells: Escherichia coli Rosetta 2(DE3)
T6 sequence (P37231 195-477 isoform P37231-2 R280C): T1 sequence (P37231 195-477 isoform P37231-2 Q286E) with R86C, E92Q

T7: PPARγ LBD Q286P (Homo sapiens, UniProt P37231, Q314P)
T7 construct: PPARγ LBD (residues 195–477 in PPARγ1 numbering) was cloned into the expression vector pET-28b(+); made in house; host or cells: Escherichia coli Rosetta 2(DE3)
T7 sequence (P37231 195-477 isoform P37231-2 Q286P): T1 sequence (P37231 195-477 isoform P37231-2 Q286E) with E92P

T8: PPARγ LBD R288C (Homo sapiens, UniProt P37231, R316C)
T8 construct: PPARγ LBD (residues 195–477 in PPARγ1 numbering) was cloned into the expression vector pET-28b(+); made in house; host or cells: Escherichia coli Rosetta 2(DE3)
T8 sequence (P37231 195-477 isoform P37231-2 R288C): T1 sequence (P37231 195-477 isoform P37231-2 Q286E) with E92Q, R94C

T9: PPARγ LBD C285Y (Homo sapiens, UniProt P37231, C313Y)
T9 construct: PPARγ LBD (residues 195–477 in PPARγ1 numbering) was cloned into the expression vector pET-28b(+); made in house; host or cells: Escherichia coli Rosetta 2(DE3)
T9 sequence (P37231 195-477 isoform P37231-2 C285Y): T1 sequence (P37231 195-477 isoform P37231-2 Q286E) with C91Y, E92Q

T10: PPARγ LBD WT (peroxisome proliferator-activated receptor gamma ligand-binding domain, wild-type) (human, UniProt P37231-2 195-477)
T10 construct: numbers count on: the PPARγ1 isoform; pET-28b(+) between Nde1 and Xho1; also called PPARγ WT; source: E. coli Rosetta 2(DE3), purified (Ni2+ HiTrap chelating, thrombin cleavage, Superdex200 gel filtration); not shown: His6, N-terminal, cleaved
T10 sequence (looked up): T1 sequence (P37231 195-477 isoform P37231-2 Q286E) with E92Q

B1: RXRα LBD (retinoid X receptor α ligand-binding domain) (domain or fragment, UniProt P19793 223-462, looked up)
chain: TSSANEDMPVERILEAELAVEPKTETYVEANMGLNPSSPNDPVTNICQAADKQLFTLVEWAKRIPHFSELPLDDQVILLRAGWNELLIASFSHRSIAVKDGILLATGLHVHRNSAHSAGVGAIFDRVLTELVSKMRDMQMDKTELGCLRAIVLFNPDSKGLSNPAEVEALREKVYASLEAYCKHKYPEQPGRFAKLLLRLPALRSIGLKCLEHLFFFKLIGDTPIDTFLMEMLEAPHQMT

Tests used:
[1] = biological target: T1, PPARγ LBD Q286E; assay: ITC binding of endogenous ligands to PPARγ LBD Q286E; conditions: PBS pH 7.2, 25 °C, ligand 0.9 mM
Experimental: (§1) Since PPARγ is physiologically regulated by endogenous ligands, it is possible that the activation of PPARγ mutants would be induced upon binding to known endogenous PPARγ ligands. […] […]. […] […].
(§2) All the measurements were conducted in the buffer of PBS pH 7.2 at 25 °C. The ligands filled in the syringe were titrated into the proteins in the cell using 19 injections of 2 μL and an initial injection of 0.4 μL with 150 s equilibration between injections. The final protein concentrations of PPARγ LBD WT and mutants were 60 μM for 15d-PGJ2 at the ligand concentration of 900 μM and 45 μM for 13S-HODE at the ligand concentration of 900 μM, respectively. The obtained data were analyzed using Origin 7.0 software.

[2] = biological target: T2, PPARγ LBD WT; assay: ITC binding of endogenous ligands to PPARγ LBD WT; conditions: PBS pH 7.2, 25 °C, ligand 0.9 mM
Experimental: as §1, §2

[3] = biological target: T3, PPARγ LBD F287Y; assay: ITC binding of endogenous ligands to PPARγ LBD F287Y; conditions: PBS pH 7.2, 25 °C, ligand 0.9 mM
Experimental: as §1, §2

[4] = biological target: T4, PPARγ LBD R288H; assay: ITC binding of endogenous ligands to PPARγ LBD R288H; conditions: PBS pH 7.2, 25 °C, ligand 0.9 mM
Experimental: as §1, §2

[5] = biological target: T5, PPARγ LBD S289C; assay: ITC binding of endogenous ligands to PPARγ LBD S289C; conditions: PBS pH 7.2, 25 °C, ligand 0.9 mM
Experimental: as §1, §2

[6] = biological target: T6, PPARγ LBD R280C; assay: ITC binding of endogenous ligands to PPARγ LBD R280C; conditions: PBS pH 7.2, 25 °C, ligand 0.9 mM
Experimental: as §1, §2

[7] = biological target: T7, PPARγ LBD Q286P; assay: ITC binding of endogenous ligands to PPARγ LBD Q286P; conditions: PBS pH 7.2, 25 °C, ligand 0.9 mM
Experimental: as §1, §2

[8] = biological target: T8, PPARγ LBD R288C; assay: ITC binding of endogenous ligands to PPARγ LBD R288C; conditions: PBS pH 7.2, 25 °C, ligand 0.9 mM
Experimental: as §1, §2

[9] = biological target: T9, PPARγ LBD C285Y; assay: ITC binding of endogenous ligands to PPARγ LBD C285Y; conditions: PBS pH 7.2, 25 °C, ligand 0.9 mM
Experimental: as §1, §2

[10] = biological target: MED1 co-activator peptide containing the LXXLL motif; assay: SPR; MED1 peptide amine-coupled to a CM5 chip (about 60 RU); PPARγ LBD WT or mutant injected at 78 nM to 10 μM, 30 μL/min, 120 s, dissociation 400 s; Biacore T200, 25 °C; 50 mM Tris-HCl pH 7.5, 150 mM NaCl, 1 mM TCEP, 0.005% tween 20; 1:1 Langmuir model
[11] = test system: RXRα LBD; assay: SPR heterodimerization of PPARγ LBD proteins with immobilized RXRα LBD; type: binding
Experimental: The transcriptional activity of PPARγ is regulated by heterodimer formation with RXRα and the recruitment of co-regulators.
(§3) The binding affinities of PPARγ LBD with lobeglitazone, RXRα and MED1 were investigated by SPR kinetics experiments. All SPR experiments were conducted at 25 °C in a Biacore T200 system (GE Healthcare). For immobilization, an amine coupling kit containing 0.1 M N-hydroxysuccinimide and 0.4 M 1-ethyl-3-(3-dimethylaminopropyl) carbodiimide hydrochloride on a CM5 sensor chip with HBS-EP (HEPES-buffered saline with EDTA and surfactant P20) buffer (10 mM HEPES pH 7.5, 150 mM NaCl, 3 mM EDTA, 0.005% tween 20) was used according to the manufacturer’s protocol (GE Healthcare). […] The remaining activated carboxyl groups on the CM5 sensor chip surface were deactivated with 1 M ethanolamine at pH 8.5 for 400 s. The control experiment was treated identically with reference flow cell 1 or 3 without proteins and the response by the control was subtracted from each sample dataset. […] The sensor chip surface was regenerated for 5 s with 5 mM NaOH between cycles. […] The SPR response data were fit to the simple bimolecular 1:1 Langmuir isotherm binding model to determine the equilibrium dissociation constant (KD) using Biacore T200 evaluation software 3.0 (GE Healthcare).

[12] = test system: MED1 peptide; assay: SPR binding of PPARγ LBD proteins to immobilized MED1 co-activator peptide
Experimental: Next, we evaluated the interaction between PPARγ LBD and MED1 co-activator peptides containing the LXXLL motif, where X represents any amino acid residue, by SPR (Figure 3D–F and Figure S8).
as §3

[13] = biological target: T10, PPARγ LBD WT (peroxisome …); assay: SPR; RXRα LBD amine-coupled to a CM5 chip (about 600 RU); PPARγ LBD WT or mutant injected, 30 μL/min, 120 s, dissociation 500 s; Biacore T200, 25 °C; 50 mM Tris-HCl pH 7.5, 150 mM NaCl, 1 mM TCEP, 0.005% tween 20; 1:1 Langmuir model; conditions: both partners purified

Row | Molecule | Kd [2] | Kd [3] | Kd [4] | Kd [5] | Kd [6] | Kd [7] | Kd [9] | Kd [10] | further results
1 | CCCCC[C@H](O)/C=C/C=C\CCCCCCCC(=O)O [13S-HODE, 13S-hydroxy-9Z,11E-octadecadienoic acid] | 14.6 µM | 27.7 µM | 67.1 µM | > 201 µM | > 201 µM | > 201 µM | 42.7 µM |  | Kd [1]: 45.9 µM; Kd [8]: > 201 µM
2 | CCCCCC=CC=C1C(=O)C=C[C@@H]1CC=CCCCC(=O)O [15d-PGJ2, 15-deoxy-∆^12,14-prostaglandin J2] | 51 µM | 65.3 µM | > 201 µM | 42.9 µM | > 201 µM | 201 µM | 162 µM |  | 
3 | PPARγ LBD Q286E (from UniProt P37231-2 195-477) (domain or fragment) |  |  |  |  |  |  |  | 5.61 µM | 
4 | PPARγ LBD WT (peroxisome proliferator-activated receptor gamma ligand-binding domain, wild-type) (from UniProt P37231-2 195-477) (domain or fragment) |  |  |  |  |  |  |  | 8.45 µM | 
5 | PPARγ LBD WT: recombinant human PPARγ ligand-binding domain (residues 195–477), wild-type |  |  |  |  |  |  |  |  | ka for RXRα LBD [11]: 396000 M⁻¹ s⁻¹; kd for RXRα LBD [11]: 0.0223 s⁻¹; Kd ([11]; 25 °C, RXRα LBD immobilized): 0.0579 µM; ka for MED1 peptide [12]: 146000 M⁻¹ s⁻¹; kd for MED1 peptide [12]: 1.24 s⁻¹; Kd ([12]; 25 °C, MED1 peptide immobilized): 8.45 µM
6 | B1 |  |  |  |  |  |  |  |  | Kd [13]: 0.0579 µM
